Results on 1 compound are retold here after paper PMC10465243, “Identification of sucrose synthase from Micractinium conductrix to favor biocatalytic glycosylation” (Frontiers in Microbiology, 2023).

The target of the assay is T1, UGT76G1 (Stevia rebaudiana, UniProt Q6VAB4, S195Q).
T1 construct: codon-optimised gene in pRSFDuet-1 (NdeI/XhoI), co-expressed with a SuSy in E. coli BL21(DE3), crude extract
As to the kind of experiment: HPLC of RebD and RebM, one-pot coupled with McSuSy S31D, E. coli crude extract. To be noted: sucrose, UDP recycling, potassium phosphate pH 7.2, 40°C; RebD formed in situ as intermediate. The assay is classed as biochemical.

T1 sequence (Q6VAB4 whole entry S195Q): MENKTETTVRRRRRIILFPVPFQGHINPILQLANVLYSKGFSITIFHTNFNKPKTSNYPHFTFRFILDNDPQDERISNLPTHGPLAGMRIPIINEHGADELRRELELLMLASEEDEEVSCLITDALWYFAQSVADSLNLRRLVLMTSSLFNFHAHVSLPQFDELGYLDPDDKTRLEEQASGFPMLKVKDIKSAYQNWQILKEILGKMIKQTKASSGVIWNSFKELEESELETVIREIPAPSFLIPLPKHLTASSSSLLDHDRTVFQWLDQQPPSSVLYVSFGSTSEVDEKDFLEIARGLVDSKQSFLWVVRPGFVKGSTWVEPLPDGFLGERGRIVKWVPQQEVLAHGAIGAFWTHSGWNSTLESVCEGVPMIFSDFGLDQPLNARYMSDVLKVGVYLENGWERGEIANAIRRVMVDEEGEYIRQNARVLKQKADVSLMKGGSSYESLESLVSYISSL

For `C=C1C[C@@]23CC[C@H]4[C@@](C)(CCC[C@@]4(C)C(=O)O[C@@H]4O[C@H](CO)[C@@H](O)[C@H](O)[C@H]4O[C@@H]4O[C@H](CO)[C@@H](O)[C@H](O)[C@H]4O)[C@@H]2CC[C@]1(O[C@@H]1O[C@H](CO)[C@@H](O)[C@H](O[C@@H]2O[C@H](CO)[C@@H](O)[C@H](O)[C@H]2O)[C@H]1O[C@@H]1O[C@H](CO)[C@@H](O)[C@H](O)[C@H]1O)C3` [RebD], the “HPLC of RebD and RebM, one-pot coupled with McSuSy S31D, E. coli crude extract” value is given as “second glycosylation reaction that RebD was converted into RebM by UGT76G1_S195Q”.
